The nature of experiment [1]: P. falciparum Dd2 blood-stage growth inhibition, dose response, SYBR Green fluorescence, erythrocytes, dry powder, set 2 (AID 1159574). Format: functional, cell-based.
Experiment [2] concerns the target G-protein coupled receptor 183 (Homo sapiens, UniProt P32249). Briefly: SAR confirmation of small molecule antagonists of the EBI2 receptor via a luminescent beta-arrestin assa. Format: functional.
Experiment [3] in a line: Luminescence Cell-Based Dose Confirmation HTS to Identify Activators of 5'UTR Stem-Loop Driven Alpha-Synuclein mRNA Translation in H4 Neuroglioblastoma Cells. [Related pubchem assays: 1829 (Project Summary), 1814 (Primary HTS)]. Format: functional.
In a further experiment the test system is H4. Briefly: Luminescence Cell-Based Dose Response HTS to Identify Activators of 5'UTR Stem-Loop Driven Prion Protein mRNA Translation in H4 Neuroglioblastoma Cells. [Related pubchem assays: 1829 (Project Summary), 1814 (Primary HTS)]. Format: functional. The following applies: Homo sapiens.
Another experiment addresses Galanin receptor type 2 (Homo sapiens, UniProt O43603). Description: Dose Response cell-based high-throughput screening assay to identify antagonists of galanin receptor 2 (GALR2). [Related pubchem assays: 828, 866 ]. Format: functional.
A short description of experiment [4]: Luminescence Cell-Based Dose Response HTS to Identify Activators of Luciferase Translation or Activity in H4 […] Cells. [Related pubchem assays: 1829 (Project Summary), 1814 (Primary HTS)]. It counts as functional.
Experiment [5] in a line: half-maximal inhibitory concentration for glucagon-like peptide-1 release, STC-1 cell line, dose-response (AID 1117345). It counts as functional, cell-based.
Experiment [6] can be described thus: HeLa 2N DNA content increase, dose response, cell-based, IC50 (AID 1117349). Format: functional.
Experiment [7] is described as follows: Shn3 3'UTR reporter inhibitors, dose response, cell-based, Clone20 osteoblasts, firefly luciferase, cherry-picked (AID 624132).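 Further: firefly luciferase luminescence from reporter carrying the Shn3 3'UTR in osteoblasts.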 Format: functional.
Experiment [8] addresses T1, Bcl-2-related protein A1 (Mus musculus, UniProt Q07440).
T1 sequence (Q07440 whole entry): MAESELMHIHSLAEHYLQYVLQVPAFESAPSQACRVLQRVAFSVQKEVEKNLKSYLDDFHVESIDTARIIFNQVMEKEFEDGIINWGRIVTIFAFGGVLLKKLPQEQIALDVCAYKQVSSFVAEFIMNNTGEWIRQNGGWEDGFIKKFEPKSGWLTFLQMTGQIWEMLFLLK
Description: Bfl-1 inhibitors blocking BH3 peptide binding, confirmation, biochemical, TR-FRET, mouse Bfl-1 (AID 621).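 Further: TR-FRET binding of GST-Bfl-1 to FITC-labelled Bid peptide via terbium antibody.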 In general terms: In TR-FRET formats the signal depends on donor and acceptor labels being close together.

A short description of experiment [9]: control 3'UTR Renilla luciferase suppression, dose response, counter-screen for Shn3 inhibitor project, cell-based, Clone20-Shn3RL, cherry-picked (AID 624133). It counts as functional. In general terms: Counterscreens check selectivity or assay interference.
The target in experiment [10] is T1, Bcl-2-related protein A1. Briefly: Bfl-1 inhibitors, primary screen, biochemical, fluorescence polarization, FITC-Bid, mouse (AID 432).
The nature of experiment [11]: Glucagon-like peptide 1 release potency, NCI-H716 cell line, dose-response, half-maximal inhibitory concentration (AID 1117344). It counts as functional, cell-based.
The nature of experiment [12]: HeLa 4N DNA content increase, dose response, cell-based, IC50 (AID 1117351). It counts as functional.
The target of experiment [13] is T2, Low molecular weight phosphotyrosine protein phosphatase (Homo sapiens, UniProt P24666).
T2 sequence (P24666 whole entry): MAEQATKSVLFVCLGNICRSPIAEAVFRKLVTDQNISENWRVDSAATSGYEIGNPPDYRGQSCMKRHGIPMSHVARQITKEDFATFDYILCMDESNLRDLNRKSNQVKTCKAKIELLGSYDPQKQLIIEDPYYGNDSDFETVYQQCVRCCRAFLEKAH
Description: LMPTP phosphatase inhibitors, colorimetric pNPP readout, dose response, orthogonal assay, biochemical, absorbance, pNPP substrate, LMPTP-A isoform, set 2 (AID 743308). Format: functional.

Experiment [14] concerns the target T2, Low molecular weight phosphotyrosine protein phosphatase. Description: LMPTP phosphatase inhibitors, dose response, biochemical, OMFP substrate, fluorescence intensity, set 2 (AID 743307). Format: functional.
In experiment [15] the test system is HEK293. Description: cells. The conditions noted are these: Homo sapiens.
Experiment [16] concerns HEK293. Description: cells. The following applies: Homo sapiens. This is another data set of the same source.
In experiment [17] the target is Mitogen-activated protein kinase 10 (Homo sapiens, UniProt P53779). Briefly: Dose response biochemical screening assay for inhibitors of c-Jun N-Terminal Kinase 3 (JNK3). [Related pubchem assays: 746 ].
Sequence of Mitogen-activated protein kinase 10 (P53779 whole entry, the tested form may be a part): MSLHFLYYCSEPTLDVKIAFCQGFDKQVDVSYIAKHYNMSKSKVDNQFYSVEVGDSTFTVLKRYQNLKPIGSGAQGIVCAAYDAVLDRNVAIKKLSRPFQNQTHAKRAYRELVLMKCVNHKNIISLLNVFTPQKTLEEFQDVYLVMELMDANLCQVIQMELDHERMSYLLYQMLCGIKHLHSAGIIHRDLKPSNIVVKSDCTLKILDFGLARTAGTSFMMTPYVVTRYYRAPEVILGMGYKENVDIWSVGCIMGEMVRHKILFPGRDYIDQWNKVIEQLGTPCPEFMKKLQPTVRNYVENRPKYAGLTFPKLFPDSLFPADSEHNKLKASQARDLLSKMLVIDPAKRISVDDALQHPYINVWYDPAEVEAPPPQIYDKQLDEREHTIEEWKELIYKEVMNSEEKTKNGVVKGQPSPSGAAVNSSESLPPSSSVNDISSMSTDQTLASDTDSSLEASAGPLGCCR
The target in experiment [18] is T3, Carboxy-terminal domain RNA polymerase II polypeptide A small phosphatase 1 (Homo sapiens, UniProt Q9GZU7).
T3 sequence (Q9GZU7 whole entry): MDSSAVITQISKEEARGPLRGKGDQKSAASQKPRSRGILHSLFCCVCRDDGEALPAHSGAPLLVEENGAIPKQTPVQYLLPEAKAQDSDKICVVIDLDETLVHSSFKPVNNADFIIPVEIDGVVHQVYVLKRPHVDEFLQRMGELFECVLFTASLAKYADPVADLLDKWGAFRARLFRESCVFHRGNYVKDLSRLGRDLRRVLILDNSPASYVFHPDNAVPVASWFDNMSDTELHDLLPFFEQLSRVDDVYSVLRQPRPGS
Briefly: inhibitors of CTDSP1, concentration-response testing, biochemical assay, absorbance-based, actives from ultra-high-throughput screening (AID 540297). Format: functional.

The target in another experiment is ELAV-like protein 1 (Homo sapiens, UniProt Q15717). Briefly: Identify HuR specific inhibitors. Format: functional.
Sequence of ELAV-like protein 1 (Q15717 whole entry): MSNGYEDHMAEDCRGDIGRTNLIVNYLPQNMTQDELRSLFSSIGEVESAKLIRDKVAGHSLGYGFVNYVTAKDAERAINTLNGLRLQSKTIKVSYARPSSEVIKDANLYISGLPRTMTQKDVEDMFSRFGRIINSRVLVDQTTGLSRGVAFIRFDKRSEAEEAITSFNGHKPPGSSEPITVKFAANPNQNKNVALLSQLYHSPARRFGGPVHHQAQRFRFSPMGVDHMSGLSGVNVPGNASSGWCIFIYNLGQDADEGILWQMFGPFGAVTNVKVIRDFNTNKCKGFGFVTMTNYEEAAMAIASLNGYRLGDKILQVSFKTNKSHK
Experiment [19] concerns the target T4, Small ubiquitin-related modifier 1 (Homo sapiens, UniProt P63165). Briefly: inhibitors of SUMO1 peptide binding, dose response, biochemical, fluorescence polarization, uHTS hits (AID 624382). Format: functional. The following applies: read-out: IC50_Mean.
In experiment [20] the target is T4, Small ubiquitin-related modifier 1. Briefly: inhibitors of SUMO1 partner interactions, dose response, biochemical, FRET (AID 624383). Format: functional. The following applies: read-out: IC50_Mean.
Experiment [21] has as its target Glutathione-S-transferase (Schistosoma japonicum, UniProt Q26513). Briefly: biotin-GST/anti-GST TR-FRET signal inhibitors, dose response, artefact control for Vif-APOBEC3G degradation inhibitor project, biochemical (AID 1117362). It counts as functional.
Experiment [22] can be described thus: P. falciparum Dd2 growth inhibitors, dose response, SYBR Green, dry powder samples (AID 1159566).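 Further: potency for growth inhibition with lower SYBR green DNA signal.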 It counts as functional, cell-based.
A short description of experiment [23]: P. falciparum ATP4 D1247Y mutant growth inhibitors, dose response, NITD609-resistant line, SYBR Green, dry powder (AID 1159571).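 Further: parasites synchronized at ring stage by sorbitol before testing.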 Format: functional, cell-based.
A short description of experiment [24]: P. falciparum Dd2 growth inhibitors, dose response, SYBR Green, dry powder samples, set 9 (AID 1159568). It counts as functional, cell-based.
A short description of experiment [25]: P. falciparum Dd2 growth inhibitors, dose response, SYBR Green, cherry-picked samples (AID 1159567). It counts as functional, cell-based.
The nature of experiment [26]: P. falciparum 3D7-ScDHODH growth inhibitors, dose response, SYBR Green, dry powder samples (AID 1159570).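 Further: parasite growth measured after 72 hours of compound exposure.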 Format: functional, cell-based.

Drawing on ChEMBL document CHEMBL1201862, “PubChem BioAssay data set” (2004), this text covers AC50, IC50 and EC50 for 8 compounds.

Activity calls are given as the source filed them. A value given as a limit tells only on which side of the number the result lay.

T4 sequence (P63165 whole entry): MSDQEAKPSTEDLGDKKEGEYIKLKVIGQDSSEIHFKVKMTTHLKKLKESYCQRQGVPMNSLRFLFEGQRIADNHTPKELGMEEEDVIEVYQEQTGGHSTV
Sequence of Galanin receptor type 2 (O43603 whole entry): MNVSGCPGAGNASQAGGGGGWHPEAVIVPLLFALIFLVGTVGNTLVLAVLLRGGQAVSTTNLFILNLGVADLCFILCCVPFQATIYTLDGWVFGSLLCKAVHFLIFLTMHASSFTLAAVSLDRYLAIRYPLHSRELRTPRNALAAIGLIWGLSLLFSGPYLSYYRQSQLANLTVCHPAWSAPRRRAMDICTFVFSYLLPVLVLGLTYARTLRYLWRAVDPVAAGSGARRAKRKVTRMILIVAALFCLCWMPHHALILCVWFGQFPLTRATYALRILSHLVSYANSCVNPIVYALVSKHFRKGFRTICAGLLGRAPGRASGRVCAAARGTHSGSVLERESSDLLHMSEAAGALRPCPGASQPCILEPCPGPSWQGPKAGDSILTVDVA
Sequence of Glutathione-S-transferase (Q26513 whole entry): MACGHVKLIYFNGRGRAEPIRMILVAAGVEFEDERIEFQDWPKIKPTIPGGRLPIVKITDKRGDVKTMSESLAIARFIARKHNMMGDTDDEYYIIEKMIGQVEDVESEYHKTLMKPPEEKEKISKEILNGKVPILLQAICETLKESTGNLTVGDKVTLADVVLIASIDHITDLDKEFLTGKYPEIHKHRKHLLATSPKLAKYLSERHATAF
Sequence of G-protein coupled receptor 183 (P32249 whole entry): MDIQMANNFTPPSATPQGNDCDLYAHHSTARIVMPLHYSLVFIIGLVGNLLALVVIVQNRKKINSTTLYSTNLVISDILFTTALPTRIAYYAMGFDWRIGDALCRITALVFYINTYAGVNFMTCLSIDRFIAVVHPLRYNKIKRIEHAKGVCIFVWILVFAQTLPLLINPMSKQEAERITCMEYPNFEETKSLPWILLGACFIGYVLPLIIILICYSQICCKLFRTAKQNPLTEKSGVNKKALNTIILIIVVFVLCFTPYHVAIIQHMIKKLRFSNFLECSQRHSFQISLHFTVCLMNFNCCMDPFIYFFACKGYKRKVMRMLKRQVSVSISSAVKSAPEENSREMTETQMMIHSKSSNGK

The AC50 is the concentration at which the activity in the assay is half-maximal. Regarding `COc1ccc(NC(=O)N2CCCCN3[C@@H](CO)[C@H](c4ccc(C#Cc5ccccc5)cc4)[C@@H]3C2)cc1`, in experiment [1], the AC50 is 0.036 µM (active).
For `CCCCN1CCN(C(=O)/C=C/c2ccc(Br)cc2)CC1`, the IC50 in experiment [2] is 0.0021 µM (active).
A word on the EC50: it is the midpoint of the concentration-response curve. `N#C/C(=C\c1cccs1)c1nc2ccccc2[nH]1`: the EC50 in experiment [3] was 2.67 µM (active); with H4, 15.8 µM (active); in [4], 26.6 µM (active). The IC50 against Galanin receptor type 2 is > 42 µM (not active).
For `CC[C@H](C)C(=O)O[C@H]1C[C@@H](C)C=C2C=C[C@H](C)[C@H](CC[C@@H]3C[C@@H](O)CC(=O)O3)[C@H]21` [LOVASTATIN], the IC50 is > 40 µM (inactive) in [5]; > 10 µM (inactive) in experiment [6]; > 100 µM (not active) at Bcl-2-related protein A1 [8]; > 100 µM (not active) at Bcl-2-related protein A1 [10]; 32.9 µM (inactive) in [11]; > 10 µM (inactive) in experiment [12]. For the same compound, the results for the AC50 in [7] and in [9] were 1.62 µM (active) and 4.74 µM (active), respectively.
As for `COc1cccc(-c2cc(NCCCN3CCCCC3)c3ccccc3n2)c1`, the IC50 in experiment [13] is 4.89 µM (active); in [14], 2.21 µM (active).
Turning to `COc1cc(C2NC(=O)NC(C)=C2C(=O)OCc2ccccc2)ccc1O` (centres undefined), the EC50 in the experiment on HEK293 [15] and with HEK293 [16] was > 59.6 µM (inactive) in each case. Further, the IC50 in experiment [17] was > 93.1 µM (not active).
With `CCOC(=O)C(=O)Cc1cccnn1`, the IC50 in [18] was 4.08 µM (active); at ELAV-like protein 1, 4.6 µM (inactive); in experiment [19], > 66.6 µM (inactive); in experiment [20], 6.34 µM (active); in experiment [21] it was > 100 µM (active).
Take `COc1cccc(-c2cccc(-c3nc(C(=O)NCc4ccc(Oc5ccccc5)cc4)cc4c3[C@@H](CCO)N([S+]([O-])C(C)(C)C)C4)c2)c1` (some centres undefined): the AC50 in experiment [22] was 0.237 µM (active); in [23], 0.449 µM (active); in experiment [24] it was 0.447 µM (active); in experiment [25], 0.671 µM (active); in [26] it was 0.826 µM (active).
